System: GB126, GB239 and GB86 patient-derived cell lines
Assay: In vitro single-cell RNA sequencing, analyses across the cell lines (pseudobulk differential gene expression, GSEA, non-cycling cells)
Format: cell-based, human
Settings: pseudobulk, ribociclib versus control (DMSO)
Procedure: Patient-derived glioma stem cell lines (GSCs; GB126, GB86, and GB239) were established from resected GBM tumor tissue. Cell lines were genetically profiled for mutations and copy number aberrations using the IvySeq custom gene panel. […] GB239 was derived from a tumor sample included in this Phase 0 trial (tumor sample: 100-0039). All human GSCs were cultured as described previously.[12]
Following the fifth day of drug exposure, cells were harvested, cryopreserved to be processed at a later point, or immediately processed for single-cell RNA sequencing (10x Genomics, 3’ version 3). The single-cell RNA sequencing data were then processed via cellranger count and Seurat. Briefly, cells were filtered out based on the following criteria: minimum number of genes detected >500 and <10 000 with a maximum percentage of mitochondrial genes set to 10%. Statistical assessment was made between the malignant proportions of each cell state using a 2-sided paired t-test.
Descriptive statistics of the clinical data are included in Table 1. Comparisons between groups were conducted using a 2-sided or paired 2-sided t-test, where indicated. P < .05 was considered significant. Multiple hypothesis test corrections (ie, false discovery rate correction) were applied for snRNAseq pseudobulk differential expression analysis.

## CN(C)C(=O)c1cc2cnc(Nc3ccc(N4CCNCC4)cn3)nc2n1C1CCCC1 [ribo]
Gene ABCA6
  log2FoldChange ABCA6: 1.5
Gene ABCA8
  log2FoldChange ABCA8: 1.548
Gene AC002074.1
  log2FoldChange AC002074.1: 1.866
Gene AC002383.1
  log2FoldChange AC002383.1: 1.53
Gene AC004828.1
  log2FoldChange AC004828.1: 1.459
Gene AC005538.3
  log2FoldChange AC005538.3: 2.148
Gene AC007317.2
  log2FoldChange AC007317.2: 2.061
Gene AC009313.1
  log2FoldChange AC009313.1: 1.78
Gene AC009975.2
  log2FoldChange AC009975.2: 1.436
Gene AC010230.1
  log2FoldChange AC010230.1: 1.7556
Gene AC010551.3
  log2FoldChange AC010551.3: 1.556
Gene AC012038.2
  log2FoldChange AC012038.2: 2.048
Gene AC012405.1
  log2FoldChange AC012405.1: 1.439
Gene AC012533.1
  log2FoldChange: -1.092
Gene AC012625.1
  log2FoldChange AC012625.1: 1.675
Gene AC013480.1
  log2FoldChange AC013480.1: 1.662
Gene AC020892.1
  log2FoldChange AC020892.1: 1.613
Gene AC023644.1
  log2FoldChange AC023644.1: 1.813
Gene AC024884.2
  log2FoldChange: -1.745
Gene AC025263.1
  log2FoldChange AC025263.1: 1.435
Gene AC026333.4
  log2FoldChange: -1.805
Gene AC026888.1
  log2FoldChange AC026888.1: 1.994
Gene AC027117.1
  log2FoldChange AC027117.1: 1.702
Gene AC055874.1
  log2FoldChange AC055874.1: 1.6992
Gene AC073611.1
  log2FoldChange AC073611.1: 1.444
Gene AC079117.1
  log2FoldChange AC079117.1: 1.6417
Gene AC090403.1
  log2FoldChange AC090403.1: 1.628
Gene AC091953.1
  log2FoldChange AC091953.1: 1.742
Gene AC092604.1
  log2FoldChange AC092604.1: 1.65
Gene AC092617.1
  log2FoldChange AC092617.1: 2.048
Gene AC092691.3
  log2FoldChange AC092691.3: 1.975
Gene AC096576.2
  log2FoldChange AC096576.2: 1.586
Gene AC096576.3
  log2FoldChange AC096576.3: 1.66
Gene AC097375.4
  log2FoldChange AC097375.4: 1.562
Gene AC099850.3
  log2FoldChange: -1.64
Gene AC100835.2
  log2FoldChange AC100835.2: 1.894
Gene AC104078.2
  log2FoldChange AC104078.2: 1.507
Gene AC104574.1
  log2FoldChange AC104574.1: 1.483
Gene AC106874.1
  log2FoldChange AC106874.1: 1.556
Gene AC109129.1
  log2FoldChange AC109129.1: 1.6709
Gene AC110296.1
  log2FoldChange AC110296.1: 1.762
Gene AC114546.2
  log2FoldChange AC114546.2: 1.559
Gene AC114964.2
  log2FoldChange AC114964.2: 1.675
Gene AC116914.1
  log2FoldChange: -1.614
Gene AC121154.1
  log2FoldChange AC121154.1: 1.879
Gene AC132153.1
  log2FoldChange AC132153.1: 1.518
Gene AC133530.1
  log2FoldChange AC133530.1: 1.513
Gene AC137579.1
  log2FoldChange AC137579.1: 1.549
Gene AC138819.1
  log2FoldChange: -1.883
Gene ACSM5
  log2FoldChange ACSM5: 2.672
Gene ACYP1
  log2FoldChange: -1.092
Gene ADAMTS4
  log2FoldChange ADAMTS4: 1.636
Gene ADCY5
  log2FoldChange ADCY5: 1.503
Gene ADGRA1-AS1
  log2FoldChange ADGRA1-AS1: 1.641
Gene ADH1A
  log2FoldChange ADH1A: 1.456
Gene AL022324.3
  log2FoldChange AL022324.3: 1.692
Gene AL031658.2
  log2FoldChange: -1.667
Gene AL132633.1
  log2FoldChange AL132633.1: 1.623
Gene AL132655.3
  log2FoldChange: -1.059
Gene AL135934.1
  log2FoldChange AL135934.1: 1.5674
Gene AL138789.1
  log2FoldChange: -1.6906
Gene AL158058.1
  log2FoldChange AL158058.1: 2.1266
Gene AL162385.1
  log2FoldChange AL162385.1: 2.332
Gene AL354813.1
  log2FoldChange AL354813.1: 1.4344
Gene AL355916.2
  log2FoldChange AL355916.2: 1.536
Gene AL356094.2
  log2FoldChange: -1.675
Gene AL358394.1
  log2FoldChange AL358394.1: 2.818
Gene AL390839.2
  log2FoldChange: -1.735
Gene AL391730.2
  log2FoldChange AL391730.2: 1.804
Gene AL445423.1
  log2FoldChange AL445423.1: 1.473
Gene AL591686.1
  log2FoldChange AL591686.1: 1.912
Gene AL645608.7
  log2FoldChange: -1.064
Gene ANP32E
  log2FoldChange: -1.059
Gene AP000569.1
  log2FoldChange AP000569.1: 1.498
Gene AP000857.2
  log2FoldChange AP000857.2: 1.634
Gene AP001825.1
  log2FoldChange AP001825.1: 1.5203
Gene AP002370.2
  log2FoldChange AP002370.2: 1.537
Gene AP002761.2
  log2FoldChange AP002761.2: 1.672
Gene ARHGAP11A
  log2FoldChange: -1.6744
Gene ARHGAP26-IT1
  log2FoldChange ARHGAP26-IT1: 2.344
Gene ARNTL2
  log2FoldChange: -1.092
Gene ASB9
  log2FoldChange ASB9: 1.438
Gene BAIAP3
  log2FoldChange BAIAP3: 1.561
Gene BBOX1
  log2FoldChange BBOX1: 1.457
Gene BRIP1
  log2FoldChange: -1.784
Gene BST2
  log2FoldChange BST2: 1.645
Gene BUB1
  log2FoldChange: -1.8
Gene C1QTNF2
  log2FoldChange: -1.812
Gene C1orf147
  log2FoldChange C1orf147: 1.503
Gene C16orf89
  log2FoldChange C16orf89: 1.4386
Gene C20orf78
  log2FoldChange C20orf78: 1.576
Gene C21orf58
  log2FoldChange: -1.614
Gene CALB2
  log2FoldChange CALB2: 2.123
Gene CAMK2N2
  log2FoldChange: -1.147
Gene CCDC74A
  log2FoldChange: -1.6
Gene CCDC74B
  log2FoldChange: -1.688
Gene CCNE2
  log2FoldChange: -1.873
Gene CCNF
  log2FoldChange: -1.863
Gene CDCA4
  log2FoldChange: -1.7252
Gene CDKN3
  log2FoldChange: -1.855
Gene CHAF1B
  log2FoldChange: -1.654
Gene CHGA
  log2FoldChange CHGA: 1.609
Gene CHI3L1
  log2FoldChange CHI3L1: 1.918
Gene CHL1-AS1
  log2FoldChange CHL1-AS1: 1.667
Gene CHST4
  log2FoldChange CHST4: 1.465
Gene CLEC1A
  log2FoldChange CLEC1A: 1.693
Gene CRHR1
  log2FoldChange: -1.091
Gene CYP4Z1
  log2FoldChange CYP4Z1: 1.554

From PMC13070491, “Single-nucleus transcriptomics, pharmacokinetics, and pharmacodynamics of CDK4/6 and mTOR inhibition in a Phase 0/1 trial of recurrent high-grade glioma” (Neuro-Oncology, 2025)
